Results published in patent publication US8530404B2, “Compounds and methods for treatment of cancer” (FibroGen, Inc., priority 2005, dated 2013).

Legend:
[1] = tested on: human A549 lung tumors; experiment: Subcutaneously implanted human A549 lung tumor mouse xenograft (Example 2); assay type: in vivo; conditions: for tumor weight at necropsy, Mean / A549 mean tumor volume: 20 mg/kg PO; for increase in mean tumor volume: within 1 week (7 days) from start, 20 mg/kg, vehicle control 45%
From the text: Immuno-compromised athymic CD-1 nu/nu nude mice males (5-6 weeks old) were used in this study (Charles River Laboratories, Wilmington, Mass.). Animals were maintained in a HEPA-filtered environment during the experimental period. Cages, food, and bedding were autoclaved. Animal diets were obtained from Harlan Teklad (Madison, Wis.). […] A stock tumor was established by subcutaneously injecting a cell suspension into nude mice. The resulting tumor was maintained in nude mice subcutaneously as tumor stock prior to use. Tumor implantation was performed when the stock tumors were in log phase of growth. Before implantation, tumor tissue was harvested from stock mice and placed in RPMI-1640 medium. Necrotic tissues were dissected away and viable tissues were cut into 1-2 mm^2 pieces. Tumor fragments were then transplanted subcutaneously to the right flank of the nude mice. Treatment (administration of compounds of the present invention) was started when the inoculated tumors reached approximately 100 mm^3, and continued for four weeks. […] Sizes of the primary tumors were measured through the skin with calipers once per week. […] Body weight of the mice in each group was also measured once per week during the experimental period. All animals were sacrificed following thirty-two days of treatment. Primary tumors were excised and weighed on an electronic balance. Blood samples were taken during terminal sacrifice and placed in microhematocrit tubes containing EDTA. Complete Blood Counts (CBC) and reticulocyte analysis were performed with the Cell Dyn 3700 analyzer (Abbott Diagnostics), as described by the manufacturer. Procedures were carried out as described above for Example 1, with the following changes. The human H-460 lung cancer cell line was replaced by the human A549 lung cancer cell line. Xenografted H460 tumors are characterized by a high growth rate, while xenografted A549 tumors progress substantially more slowly. A549 has been characterized extensively. […] Hanze et al., (2003) Biochem Biophys Res Commun 312:571-577; Wedge et al., (2002) Cancer Res 62:4645-4655; and Abdollahi et al., (2003) Cancer Res 63:8890-8898.) Compound B treatment groups (6 mg/kg, 20 mg/kg) were replaced by compound D treatment groups (6 mg/kg, 20 mg/kg). Other experimental parameters were identical to those described in Example 1 above.

[2] = tested on: human H-460-GFP lung tumors; experiment: Orthotopically implanted human H-460-GFP lung tumor mouse xenograft, survival and metastasis (Example 3); assay type: in vivo; conditions: for Metastatic Incidence (proportion of animals exhibiting mediastinal lymph node metastasis): vehicle 9/10
Description: To examine the effect of methods and compounds of the present invention in a metastatic model of tumor progression, compounds of the invention were administered to orthotopically implanted H-460-GFP xenografted animals. Tumor models employing surgical orthotopic implantation (SOI) into the organ of origin of the original tumor are regarded as representative of cancer progression and metastasis in humans. Orthotopic implantation of H-460 increases the rate of tumor metastasis.
This experiment is carried out as described in Example 1 above, with the following modifications. To aid in identification and scoring of metastasis, the human H-460 lung cancer cell line was replaced by genetically-engineered tumors of GFP-transfected H-460 cells. 1-2 mm^3 H460-GFP lung tumor fragments were implanted by surgical orthotopic implantation (SOI) and sutured directly into lung tissue. (Yang et al., (1998) Cancer Res 58:4217-4221.) Dosing was initiated immediately after successful confirmation of tumor take by fluorescent GFP imaging (˜5 days following tumor implantation). Doxorubicin (DOX, 7.5 mg/kg, i.v. administration) was used as a chemotherapy control, and was administered on treatment days 3, 7, and 11.
In addition to weekly caliper measurement of primary tumor size, GFP imaging was performed on animals to monitor primary tumor progression and metastasis, starting the first day of treatment. Study endpoints were reached when an average tumor size of 2 cc or three morbid mice appear in any one group, whichever occurs first, regardless of treatment duration. Each animal was checked daily for mortality or signs of morbidity. Morbid animals were frozen. All animals, including dead animals, were examined by GFP imaging for primary tumor and metastasis at necropsy. Imaging and caliper measurements were used to determine the effects of treatment. Primary tumors were excised, measured and weighed at necropsy. Blood samples were taken during terminal sacrifice and complete blood counts (CBC) and reticulocyte analysis were performed.
Tumor metastasis is associated with increased morbidity and mortality in humans with metastatic cancer and in animal models of metastatic cancer. […] The increased morbidity and mortality were recorded and animals were preserved for subsequent necropsy. The study was terminated after >3 animals were found morbid in the vehicle group on treatment day 14, at which point the remaining animals were sacrificed to evaluate and compare tumor progression in the various treatment groups.
To determine metastatic frequency, the thoracic and abdominal cavities of animals were examined by fluorescent imaging.

[3] = tested on: BNIP3 gene expression; experiment: BNIP3 gene expression in MCF7 cells; assay type: cell-based; conditions: Homo sapiens, MCF7, read-out: fold-increase in BNIP3 mRNA expression
Description: (§1) To identify compounds useful in the methods of the present invention, the following studies were performed. The effect of compounds of the present invention on expression of various genes associated with anti-tumor activity (e.g., genes having anti-proliferative activity, genes having pro-apoptotic activity, genes having anti-tumor activity, etc.). In these experiments, the effect of compounds on BNIP3, BNIP3L, NDRG1, CDKN1C, and REDD1/RTP801 gene expression in various types of cultured tumor cells line was examined, including Hep3B cells (human hepatocellular carcinoma), Kelly neuroblastoma cells, and MCF7 cells (human breast cancer)
(§2) The effects of various compounds of the present invention on the expression of genes associated with tumor growth and progression were examined in MCF7 breast cancer cells as follows. In some experiments, MCF7 (ATCC) cells were plated in 96-well tissue culture dishes (approximately 20,000 cells per well) and cultured in DMEM media supplemented with 10% serum. The following day, the cells were washed and the media was replaced with DMEM containing 0.5% FBS. Various compounds of the present invention were added to the cultured cells to a final concentration of 20 μM, and the cells cultured for an additional 20-24 hours. DMSO (0.5%) was added to control cell cultures. RNA was isolated as described above. Changes in gene expression levels are presented as fold change compared to that of control (0.5% DMSO-treated) cultures.
In other experiments, MCF7 cells were plated in 96-well tissue culture dishes as described above. After 24 hours, the cells were washed and the media was replaced with DMEM containing 0.5% FBS. Various compounds of the present invention were added to the cultured cells to a final concentration of 20 μM. DMSO (0.5%) was added to control cell cultures. After 24 hours, changes in gene expression of BNIP3 and 18S RNA were determined directly using one-step quantitative multiplex RT-PCR reactions according to the manufacturer's instructions (QuantiTect Multiplex RT-PCR Kit, Qiagen, catalog no. 204643). Changes in gene expression levels are presented as fold change compared to that of control (0.5% DMSO-treated) cultures.

[4] = tested on: CDKN1C gene expression; experiment: CDKN1C gene expression in MCF7 cells; assay type: cell-based; conditions: Homo sapiens, MCF7, read-out: fold-increase in CDKN1C mRNA expression
Description: as §1, §2

Compound: COc1ccc(Oc2ccc3c(O)c(C(=O)NCC(=O)O)ncc3c2)cc1 [Compound C, {[4-Hydroxy-7-(4-methoxy-phenoxy)-isoquinoline-3-carbonyl]-amino}-acetic acid]
- tumor weight at necropsy, Mean [1]: 0.50 g
- A549 mean tumor volume ([1]; week 0): 102 mm^3
- A549 mean tumor volume ([1]; week 1): 124 mm^3
- A549 mean tumor volume ([1]; week 2): 152 mm^3
- A549 mean tumor volume ([1]; week 3): 180 mm^3
- A549 mean tumor volume ([1]; week 4): 208 mm^3
- increase in mean tumor volume [1]: 22%
- Metastatic Incidence (proportion of animals exhibiting mediastinal lymph node metastasis) ([2]; 20 mg/kg): 5/10
- proportion of surviving animals ([2]; treatment day 9, 20 mg/kg): 10/10
- proportion of surviving animals ([2]; treatment day 11, 20 mg/kg): 10/10
- proportion of surviving animals ([2]; treatment day 12, 20 mg/kg): 9/10
- proportion of surviving animals ([2]; treatment day 13, 20 mg/kg): 8/10
- proportion of surviving animals ([2]; treatment day 14, 20 mg/kg): 8/10
- fold induction at 20 µM [3]: 5
- fold induction at 20 µM [4]: 0.6

Compound: O=C(O)CNC(=O)c1ncc2cc(Oc3ccc(F)cc3)ccc2c1O [Compound E, {[7-(4-fluoro-phenoxy)-4-hydroxy-isoquinoline-3-carbonyl]-amino}-acetic acid]
- proportion of surviving animals ([2]; treatment day 9, 20 mg/kg): 9/10
- proportion of surviving animals ([2]; treatment day 11, 20 mg/kg): 9/10
- proportion of surviving animals ([2]; treatment day 12, 20 mg/kg): 9/10
- proportion of surviving animals ([2]; treatment day 13, 20 mg/kg): 8/10
- proportion of surviving animals ([2]; treatment day 14, 20 mg/kg): 8/10
- fold induction at 20 µM [3]: 5.3
- fold induction at 20 µM [4]: 0.4

Compound: Cc1nc(C(=O)NCC(=O)O)c(O)c2ccc(Oc3ccccc3)cc12 [Compound D, [(4-Hydroxy-1-methyl-7-phenoxy-isoquinoline-3-carbonyl)-amino]-acetic acid]
- tumor weight at necropsy, Mean [1]: 0.58 g
- A549 mean tumor volume ([1]; week 0): 106 mm^3
- A549 mean tumor volume ([1]; week 1): 126 mm^3
- A549 mean tumor volume ([1]; week 2): 148 mm^3
- A549 mean tumor volume ([1]; week 3): 193 mm^3
- A549 mean tumor volume ([1]; week 4): 227 mm^3
- increase in mean tumor volume [1]: 20%
- Metastatic Incidence (proportion of animals exhibiting mediastinal lymph node metastasis) ([2]; 20 mg/kg): 9/10
- proportion of surviving animals ([2]; treatment day 9, 20 mg/kg): 10/10
- proportion of surviving animals ([2]; treatment day 11, 20 mg/kg): 9/10
- proportion of surviving animals ([2]; treatment day 12, 20 mg/kg): 9/10
- proportion of surviving animals ([2]; treatment day 13, 20 mg/kg): 9/10
- proportion of surviving animals ([2]; treatment day 14, 20 mg/kg): 9/10

Compound: O=C(O)CNC(=O)c1nc(Cl)c2ccccc2c1O [Compound A, [(1-Chloro-4-hydroxy-isoquinoline-3-carbonyl)-amino]-acetic acid]
- tumor weight at necropsy, Mean [1]: 0.76 g
- A549 mean tumor volume ([1]; week 0): 100 mm^3
- A549 mean tumor volume ([1]; week 1): 138 mm^3
- A549 mean tumor volume ([1]; week 2): 173 mm^3
- A549 mean tumor volume ([1]; week 3): 241 mm^3
- A549 mean tumor volume ([1]; week 4): 328 mm^3
- Metastatic Incidence (proportion of animals exhibiting mediastinal lymph node metastasis) ([2]; 20 mg/kg): 8/10
- Metastatic Incidence (proportion of animals exhibiting mediastinal lymph node metastasis) ([2]; 60 mg/kg): 7/10
- proportion of surviving animals ([2]; treatment day 9, 20 mg/kg): 10/10
- proportion of surviving animals ([2]; treatment day 9, 60 mg/kg): 10/10
- proportion of surviving animals ([2]; treatment day 11, 20 mg/kg): 10/10
- proportion of surviving animals ([2]; treatment day 11, 60 mg/kg): 10/10
- proportion of surviving animals ([2]; treatment day 12, 20 mg/kg): 10/10
- proportion of surviving animals ([2]; treatment day 12, 60 mg/kg): 9/10
- proportion of surviving animals ([2]; treatment day 13, 20 mg/kg): 8/10
- proportion of surviving animals ([2]; treatment day 13, 60 mg/kg): 9/10
- proportion of surviving animals ([2]; treatment day 14, 20 mg/kg): 8/10
- proportion of surviving animals ([2]; treatment day 14, 60 mg/kg): 9/10

Compound: C[C@H](NC(=O)c1ncc2cc(Oc3ccccc3)ccc2c1O)C(=O)O [Compound B, (S)-2-[(4-Hydroxy-7-phenoxy-isoquinoline-3-carbonyl)-amino]-propionic acid]
- fold induction at 20 µM [3]: 4.5
- fold induction at 20 µM [4]: 0.5
